Reference: US9114133B2, “Method of improving diastolic dysfunction” (U.S. DEPT. OF VETERANS AFFAIRS, priority 2006, dated 2015)
Marks after values point to notes of the source that are not given here.

What was measured:
isolated single myocytes = assay: Residual sarcomere length of isolated myocytes with BDM; format: cell-based, mouse; details: BDM 10 mM
Description: 2,3-Butanedione monoxime (BDM), a cross-bridge inhibitor, was used to measure residual sarcomere length. BDM inhibits the Ca^2+ regulated attachment of the cross-bridges and force-generation of the attached cross-bridges (Reference 16). Isolated single myocytes were loaded on an chamber and perfused with BDM (10 mM) in Tyrode's solution at 37° C. Sarcomere length was again measured while the myocytes were field-stimulated as described above.

[1] = tested on: DOCA-salt mouse model (diastolic dysfunction) and sham mice; assay: Transthoracic echocardiography, in vivo BH4 treatment in DOCA-salt mice; details: BH4 diet 5 mg BH4/day day 11-18, mean ± SEM
Description: Previously, I have shown that the DOCA-salt mouse model leads to mild hypertension, NOS uncoupling, myocardial oxidative stress, and diastolic dysfunction (Reference 10). A gradual and mild elevation in blood pressure was induced by unilateral nephrectomy, subcutaneous implantation of a controlled release deoxycorticosterone acetate (DOCA) pellet (0.7 mg/d; Innovative Research of America, Sarasota, Fla.), and substituting drinking water with 1.05% saline. Control animals underwent a sham operation, had placebo pellet implantation, and received water without salt.
Mice were divided into two groups which received a control diet (sham N=7; DOCA-salt N=10) and two groups which received a BH4 supplemental diet of 5 mg BH4/day (Research Diets Inc, New Brunswick, N.J.; sham+BH4 N=8; DOCA-salt+BH4 N=8). The supplemental diet began on day 11 after surgery, and continued until day 18, when the mice were analyzed and sacrificed.
Mitral pulse wave Doppler flow and tissue Doppler imaging (TDI) were performed using the Vevo 770 high-resolution in vivo imaging system (Visual Sonics, Toronto, Canada) (Reference 10). Mice were anesthetized with 1-1.5% isoflurane until a heart rate of around 350-390 beats/min was achieved because measures of diastolic function are sensitive to heart rate and loading conditions. M-mode images in the parasternal long axis and the left ventricle (LV) short-axis views at the mid-papillary level were taken. Measurements were averaged from five consecutive beats during expiration. The images for each mouse were recorded for at least 5 s (30-40 cardiac cycles) from which three to five representative cycles with the highest quality imaging were selected. Percent fractional shortening (% FS) was calculated as 100×(LVEDd)−(LVESd)/(LVEDd) and percent LV ejection fraction (% EF) was calculated as 100×[(7/2.4+LVEDd)×LEDd^3]−[(7/2.4+LVESd)×LVESd^3]/[(7/2.4+LVEDd)×LEDd^3]. Doppler measurements were made at the tips of the mitral leaflets for diastolic filling profiles in the apical four-chamber view. Mitral inflow velocities, peak early (E) and late (A) were measured by conventional pulsed-wave Doppler. TDI was used to determine the mitral annulus longitudinal velocities (Sm, E′, and A′) (Reference 10). Baseline images before treatment were acquired to confirm diastolic dysfunction in DOCA-salt mice. Subsequently, the mice were fed with BH4, followed by echocardiography at day 18.

[2] = tested on: isolated ventricular myocytes; assay: Isolated myocyte contraction and relaxation parameters (IonOptix); format: cell-based, mouse; details: 1.0 Hz, 10 V, external Ca2+ 1.2 mmol/L
[3] = tested on: MnSOD deficient cardiomyocytes; assay: Contraction and relaxation of cardiomyocytes from heterozygous MnSOD knockout mice (IonOptix); format: cell-based, mouse; details: BH4 treatment
Description: Echocardiography was used to determine DD in heterozygous MnSOD knockout mice. The mitral annulus longitudinal velocities (E′, and A′) were determined by pulsed-wave tissue Doppler from the apical four-chamber view. Mitochondrial ROS were measured by confocal microscopy and flow cytometry from isolated cardiomyocytes using MitoSOX Red. NO was measured by DAF-FM and by the Griess reaction. Contraction and relaxation impairment were assessed by lonOptix System.

[4] = myocytes from DOCA-salt + BH4 mice

**Q.** Which results are given for `CC(=O)C(C)=NO` [BDM, 2,3-Butanedione monoxime]?
**A.** Residual sarcomere length (isolated single myocytes; myocytes after BH4 treatment): no effect; Residual sarcomere length (isolated single myocytes; myocytes of sham and DOCA-salt groups): increased

**Q.** Which results are given for `C[C@H](O)[C@H](O)[C@H]1CNc2nc(N)[nH]c(=O)c2N1` [BH4, tetrahydrobiopterin]?
**A.** A′ (tissue Doppler) ([1]; DOCA-salt mice): 15.2 ± 1.0 mm/s; EF (ejection fraction) ([1]; DOCA-salt mice): 54.5 ± 5.0%; E′ (tissue Doppler) ([1]; DOCA-salt mice): 16.8 ± 1.3†^ mm/s; FS (fractional shortening) ([1]; DOCA-salt mice): 26.6 ± 2.9%; LVEDD ([1]; DOCA-salt mice): 3.67 ± 0.14 mm; LVESD ([1]; DOCA-salt mice): 2.65 ± 0.21 mm; MV A ([1]; DOCA-salt mice): 367.8 ± 48.3 mm/s; MV E ([1]; DOCA-salt mice): 555.0 ± 35.1†^ mm/s; MV E/A ratio ([1]; DOCA-salt mice): 1.71 ± 0.33; Sm ([1]; DOCA-salt mice): 15.8 ± 1.5; A′ (tissue Doppler) ([1]; sham mice): 21.1 ± 1.9 mm/s; E/E′ ratio ([1]; sham mice): 34.91 ± 6.81&; EF (ejection fraction) ([1]; sham mice): 51.1 ± 2.8%; E′ (tissue Doppler) ([1]; sham mice): 24.4 ± 2.2†& mm/s; E′/A′ ratio ([1]; sham mice): 1.17 ± 0.06&; FS (fractional shortening) ([1]; sham mice): 24.7 ± 1.6%; LVEDD ([1]; sham mice): 4.05 ± 0.10 mm; LVESD ([1]; sham mice): 3.01 ± 0.11 mm; MV A ([1]; sham mice): 357.5 ± 31.7 mm/s; MV E ([1]; sham mice): 738.1 ± 31.1†& mm/s; MV E/A ratio ([1]; sham mice): 2.28 ± 0.33; Sm ([1]; sham mice): 22.9 ± 1.5; Diastolic SL [2, 4]: 1.77±0.01 μm; Relengthening velocity [2, 4]: 2.39 ± 0.18 μm/s; Sarcomere shortening [2, 4]: 9.48 ± 0.49%; Shortening velocity [2, 4]: −2.42 ± 0.14 μm/s; Systolic SL [2, 4]: 1.60 ± 0.01 μm; Time to 50% relengthening [2, 4]: 240.3 ± 7.5 ms; Time to 50% shortening [2, 4]: 47.5 ± 0.7 ms; Time to 90% relengthening [2, 4]: 300.0 ± 13.4 ms; Time to 90% shortening [2, 4]: 93.5 ± 1.8 ms; Time to peak shortening [2, 4]: 146.2 ± 0.3 ms; Diastolic SL ([2]; myocytes from sham + BH4 mice): 1.80 ± 0.01#†& μm; Relaxation constant, τ ([2]; myocytes from sham + BH4 mice): 0.07 ± 0.00&; Relengthening velocity ([2]; myocytes from sham + BH4 mice): 2.75 ± 0.18#†& μm/s; Sarcomere shortening ([2]; myocytes from sham + BH4 mice): 10.64 ± 0.61& %; Shortening velocity ([2]; myocytes from sham + BH4 mice): −2.90 ± 0.16#†& μm/s; Systolic SL ([2]; myocytes from sham + BH4 mice): 1.61 ± 0.01& μm; Time to 50% relengthening ([2]; myocytes from sham + BH4 mice): 204.7 ± 6.0&# ms; Time to 50% shortening ([2]; myocytes from sham + BH4 mice): 45.6 ± 0.8 ms; Time to 90% relengthening ([2]; myocytes from sham + BH4 mice): 258.7 ± 11.7&# ms; Time to 90% shortening ([2]; myocytes from sham + BH4 mice): 87.3 ± 1.8&# ms; Time to peak shortening ([2]; myocytes from sham + BH4 mice): 133.6 ± 0.3& ms; Relaxation constant (tau) [3]: 0.73±0.01; Resting sarcomere length [3]: 1.77±0.01 μm
